Experimental data as given in paper PMC11531485, “Examining prestructured β-actin peptides as substrates of histidine methyltransferase SETD3” (Scientific Reports, 2024).
Positions of bridges follow the written chain, without caps; N, C: chain ends. Non-standard residues stand in square brackets, D forms with d. Residues, ends and D or L forms follow the SMILES beside them. No end group written: not given here. Orn = NCCC[C@H](N)C(=O)O

Key:
human SETD3 [1] = molecular target: T1, human SETD3 (Homo sapiens, UniProt Q86TU7); test: MALDI-TOF MS enzymatic substrate scope assay (SETD3-catalyzed methylation of βA peptides); format: biochemical; settings: 1 µM SETD3, 10 µM βA peptide, 100 µM SAM, 25 mM Tris, 20 mM NaCl, pH 9.0, 37 °C; for SETD3-catalyzed methylation after 3 h: N = 2
T1 construct: His6 (N); made in house; host or cells: E. coli BL21(DE3)
T1 sequence (Q86TU7 1-594): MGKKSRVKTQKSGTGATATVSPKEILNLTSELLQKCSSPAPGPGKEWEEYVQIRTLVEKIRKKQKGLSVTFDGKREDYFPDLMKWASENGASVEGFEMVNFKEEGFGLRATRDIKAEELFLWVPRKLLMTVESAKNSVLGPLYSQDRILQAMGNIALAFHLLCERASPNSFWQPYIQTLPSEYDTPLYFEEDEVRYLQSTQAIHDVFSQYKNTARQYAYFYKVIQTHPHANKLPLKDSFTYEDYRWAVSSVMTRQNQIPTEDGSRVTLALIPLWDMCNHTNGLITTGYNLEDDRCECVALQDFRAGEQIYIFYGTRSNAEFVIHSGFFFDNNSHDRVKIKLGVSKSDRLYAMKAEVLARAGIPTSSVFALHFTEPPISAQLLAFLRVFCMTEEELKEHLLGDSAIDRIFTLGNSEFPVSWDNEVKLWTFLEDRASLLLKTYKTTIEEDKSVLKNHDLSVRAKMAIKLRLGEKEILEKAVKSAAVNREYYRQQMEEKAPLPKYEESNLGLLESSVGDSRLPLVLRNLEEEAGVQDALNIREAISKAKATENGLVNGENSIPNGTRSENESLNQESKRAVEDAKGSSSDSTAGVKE
Protocol: We examined conformationally restrained βA peptides and linear controls as substrates for the recombinantly expressed human SETD3 employing MALDI-TOF MS to detect a characteristic + 14 Da mass increase upon methylation. Enzymatic reactions were evaluated using standard conditions (1 µM SETD3, 10 µM βA, 100 µM SAM) in methylation buffer (25 mM Tris, 20 mM NaCl, pH = 9.0 at 37 °C)[21]. The enzymatic reaction was quenched with 10% TFA in MilliQ water (1:1 v/v) at 1 h and 3 h before mass spectrometric analysis (Figs . 4 and S3-S4). […] Finally, azide-alkyne Cu^I-mediated Huisgen 1,3-dipolar cycloaddition yields peptide 11 that was poorly (14%) methylated by SETD3 after 3 h under standard conditions (Figs. 4L and S4L). […] Taken together, these findings illustrate an overall preference of human SETD3 for flexible βA peptides, which facilitates βA-H73 insertion into the active site. Introduction of flexible macrocycles results in an overall reduced methylation by SETD3, while bulky or rigidifying moieties present within the macrocycles render the βA peptides non-reactive to methylation by SETD3.
Fig. 4 MALDI-TOF MS data showing SETD3-catalyzed (1 µM) methylation of βA peptides (10 µM) in the presence of SAM (100 µM) in reaction buffer (25 mM Tris, 20 mM NaCl, pH = 9.0) after 3 h at 37 °C. (A) βA, (B) 1, (C) 2, (D) 3, (E) 4, (F) 5, (G) 6, (H) 7, (I) 8, (J) 9, (K) 10, (L) 11. Control reactions in the absence of SETD3 are shown in black, whereas SETD3-catalyzed reactions are shown in red.
SETD3 substrate scope experiments towards βA peptides were performed by incubation of βA peptides (10 µM) in methylation buffer (25 mM Tris, 20 mM NaCl, pH = 9.0) in the presence of SAM (100 µM) and SETD3 (1 µM) in a final volume of 50 µL for 1 and 3 h at 37 °C while shaking at 750 rpm in an Eppendorf Thermomixer C. The reaction was quenched by addition of 10% TFA in MilliQ H2O (1:1). The reactions were aliquoted and mixed with α-cyano-4-hydroxycinnamic acid dissolved in MilliQ H2O and ACN (1:1, v/v) with 0.1% TFA. The aliquots were loaded onto a MTP 384 polished steel target for MALDI-TOF analysis using a UltrafleXtreme and conversion to methylated product was monitored.

human SETD3 [2] = molecular target: T1, human SETD3; test: MALDI-TOF MS methylation kinetics assay (Michaelis-Menten, steady state); format: biochemical; settings: 200 nM SETD3, 3.125-150 µM peptide, 100 µM SAM, pH 9.0, 37 °C; for Km / kcat: 25 mM Tris, 20 mM NaCl, MALDI-TOF MS, duplicate, mean ± SE, SEM
Protocol: (§1) Catalytic efficiencies were explored for SETD3-catalyzed methylation of linear βA peptides 1, 6, 8 and 10 (Fig. 5; Table 1). Kinetic parameters were determined using MALDI-TOF MS assays under steady-state conditions by incubation with saturating amounts of SAM (100 µM)[23]. Addition of SETD3 (200 nM) to varying concentrations of linear βA peptides (0–150 µM) in reaction buffer initiated the reaction, upon which the mixture was incubated at 37 °C and quenched at timepoints that guarantee v0-reaction rates for SETD3-catalyzed methylation.
(§2) Fig. 5 Michaelis–Menten kinetics of linear βA peptides at varying concentrations (3.125-150 µM) by SETD3 (200 nM) in presence of saturating amounts of SAM (100 µM) in reaction buffer (25 mM Tris, 20 mM NaCl, pH = 9.0) at 37 °C.
(§3) Kinetics evaluation was carried out with a MALDI-TOF MS assay under steady state conditions. βA peptides (3.125–150 µM) and SAM (100 µM) were dissolved in methylation buffer (25 mM Tris, 20 mM NaCl, pH = 9.0), upon which the reaction was initiated by addition of SETD3. Reactions were incubated at 37 °C and shaken at 750 rpm Eppendorf Thermomixer C for 30 min, upon which the reactions were quenched by addition of 10% TFA in MilliQ water (1:1). Reactions were aliquoted and mixed with α-cyano-4-hydroxycinnamic acid dissolved in MilliQ H2O and ACN (1:1, v/v) with 0.1% TFA. The aliquots were loaded onto a MTP 384 polished steel target for MALDI-TOF analysis using a UltrafleXtreme. Methylated product was quantified by determining the combined integrals of the various ionic species of the methylated product. Kinetic parameters were subsequently determined by plotting V0 values and actin peptide concentrations and fitting them to the Michaelis–Menten equation using GraphPad Prism software. Experiments were performed in duplicate and values are reported as mean [drawing 1] standard error (SE) (Figs. S3-S4).

[3] = molecular target: T2, human SETD3 histidine methyltransferase (human, UniProt Q86TU7 1-594)
T2 sequence (looked up): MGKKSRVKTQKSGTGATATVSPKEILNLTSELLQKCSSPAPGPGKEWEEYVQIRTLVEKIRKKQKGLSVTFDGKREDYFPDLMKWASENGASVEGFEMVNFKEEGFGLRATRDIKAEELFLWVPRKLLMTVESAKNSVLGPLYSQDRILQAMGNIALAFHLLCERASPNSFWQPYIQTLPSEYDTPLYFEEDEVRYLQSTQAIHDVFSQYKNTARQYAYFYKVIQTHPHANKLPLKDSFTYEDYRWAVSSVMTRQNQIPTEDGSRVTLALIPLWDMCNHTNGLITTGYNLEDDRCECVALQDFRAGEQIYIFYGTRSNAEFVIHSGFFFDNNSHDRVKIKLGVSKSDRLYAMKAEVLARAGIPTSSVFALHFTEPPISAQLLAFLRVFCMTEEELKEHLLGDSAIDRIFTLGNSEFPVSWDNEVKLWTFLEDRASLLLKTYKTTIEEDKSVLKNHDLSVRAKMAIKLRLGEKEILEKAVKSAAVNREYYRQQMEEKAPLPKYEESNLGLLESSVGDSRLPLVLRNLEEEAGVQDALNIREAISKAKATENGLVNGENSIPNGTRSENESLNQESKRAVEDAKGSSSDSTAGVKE

[4] = molecular target: human SETD3 histidine methyltransferase (human) (UniProt Q86TU7)
[5] = substrate: CC[C@H](C)[C@H](NC(=O)CNC(=O)[C@H](Cc1c[nH]cn1)NC(=O)[C@H](CCC(=O)O)NC(=O)[C@@H](NC(=O)[C@@H]1CCCN1C(=O)[C@H](Cc1ccc(O)cc1)NC(=O)[C@H](CCCCN)NC(=O)[C@H](CC(C)C)NC(=O)[C@@H](N)[C@@H](C)O)[C@@H](C)CC)C(=O)N[C@H](C(=O)N[C@H](C(=O)N[C@@H](CC(N)=O)C(=O)N[C@@H](Cc1c[nH]c2ccccc12)C(=O)N[C@@H](CC(=O)O)C(=O)N[C@@H](CC(=O)O)C(N)=O)[C@@H](C)O)C(C)C; test: MALDI-TOF MS methylation kinetics assay (Michaelis-Menten, steady state); format: biochemical, human; settings: other: 200 nM SETD3, 3.125-150 µM peptide, 100 µM SAM, 25 mM Tris, 20 mM NaCl, pH 9.0, 37 °C, duplicate, mean ± SE
Protocol: as §1, §2, §3

Molecule: CC[C@H](C)[C@H](NC(=O)[C@@H]1CCCN1C(=O)[C@H](Cc1ccc(O)cc1)NC(=O)[C@H](CCCCN)NC(=O)[C@H](CC(C)C)NC(=O)[C@@H](N)[C@@H](C)O)C(=O)N[C@H]1CCC(=O)NCCCC[C@@H](C(=O)N[C@H](C(=O)N[C@H](C(=O)N[C@@H](CC(N)=O)C(=O)N[C@@H](Cc2c[nH]c3ccccc23)C(=O)N[C@@H](CC(=O)O)C(=O)N[C@@H](CC(=O)O)C(N)=O)[C@@H](C)O)C(C)C)NC(=O)CNC(=O)[C@H](Cc2c[nH]cn2)NC1=O [compound 9] (H-TLKYPIEHGKVTNWDD-NH2; lactam 7-10)
- SETD3-catalyzed methylation after 3 h (human SETD3 [1]): 25%

Molecule: TLKYPICHGCVTNWDD (also: sidechain bridge or staple (positions not given here)) [compound 2, stapled bis-thiol alkylated βA peptide]
- SETD3-catalyzed methylation after 3 h (human SETD3 [1]): 30%

Molecule: TLKYPICHGCVTNWDD (also: sidechain bridge or staple (positions not given here)) [compound 3, stapled bis-thiol alkylated βA peptide]
- SETD3-catalyzed methylation after 3 h (human SETD3 [1]): 35%

Molecule: TLKYPICHGCVTNWDD (also: sidechain bridge or staple (positions not given here)) [compound 4, βA peptide stapled with hexafluorobenzene]
- SETD3-catalyzed methylation after 3 h (in words) (human SETD3 [1]): inert to methylation

Molecule: TLKYPICHGCVTNWDD [compound 1, linear dicysteine βA66-81 control peptide]
- SETD3-catalyzed methylation (conversion) within 1 h (human SETD3 [1]): full conversion
- Km (human SETD3 [2]): 75.7 ± 20 µM
- kcat (human SETD3 [2]): 0.983 ± 0.125 s⁻¹
- kcat/Km (human SETD3 [2]): 13000 M⁻¹ s⁻¹

Molecule: TLKYPIEHG[Orn]VTNWDD (also: sidechain bridge or staple (positions not given here)) [compound 7, i, i + 3 lactam-bridged βA peptide (Glu72-Orn75)]
- SETD3-catalyzed methylation after 3 h (human SETD3 [1]): 41%

Molecule: TLKYPIEHG[Orn]VTNWDD [compound 6, linear lactam control, βA-I75 substituted by Orn]
- SETD3-catalyzed methylation (conversion) within 1 h (human SETD3 [1]): completely methylated
- Km (human SETD3 [2]): 45.2 ± 8.1 µM
- kcat (human SETD3 [2]): 3.68 ± 0.267 s⁻¹
- kcat/Km (human SETD3 [2]): 81800 M⁻¹ s⁻¹

Molecule: TLKYPILys(N3)HGPraVTNWDD (sidechain bridge or staple) [compound 11, triazole-stapled βA peptide from azide-alkyne cycloaddition of 10]
- SETD3-catalyzed methylation after 3 h (human SETD3 [1]): 14%

Molecule: TLKYPILys(N3)HGPraVTNWDD [compound 10, linear click-control with azido-lysine and propargylglycine]
- SETD3-catalyzed methylation after 3 h (in words) (human SETD3 [1]): full conversion
- Km (human SETD3 [2]): 77.8 ± 14 µM
- kcat (human SETD3 [2]): 1.72 ± 0.15 s⁻¹
- kcat/Km (human SETD3 [2]): 22000 M⁻¹ s⁻¹

Molecule: linear βA peptide 6 (Ile75 replaced by ornithine) (from UniProt P60709 66-81)
- Km of SETD3-catalysed methylation, MALDI-TOF MS steady-state kinetics (200 nM SETD3, 100 µM SAM, pH 9.0, 37 °C) [3]: 45.2 µM
- kcat of SETD3-catalysed methylation, MALDI-TOF MS steady-state kinetics (200 nM SETD3, 100 µM SAM, pH 9.0, 37 °C) [3]: 221 min^-1
- kcat/Km of SETD3-catalysed methylation, MALDI-TOF MS steady-state kinetics (200 nM SETD3, 100 µM SAM, pH 9.0, 37 °C) [3]: 4.91 µM^-1min^-1

Molecule: linear βA peptide 8 (I75K) (from UniProt P60709 66-81)
- Km of SETD3-catalysed methylation, MALDI-TOF MS steady-state kinetics (200 nM SETD3, 100 µM SAM, pH 9.0, 37 °C) [4]: 25.1 µM
- kcat of SETD3-catalysed methylation, MALDI-TOF MS steady-state kinetics (200 nM SETD3, 100 µM SAM, pH 9.0, 37 °C) [4]: 246 min^-1
- kcat/Km of SETD3-catalysed methylation, MALDI-TOF MS steady-state kinetics (200 nM SETD3, 100 µM SAM, pH 9.0, 37 °C) [4]: 9.8 µM^-1min^-1

B1: human SETD3 (Homo sapiens) (protein)
chain: MGKKSRVKTQKSGTGATATVSPKEILNLTSELLQKCSSPAPGPGKEWEEYVQIRTLVEKIRKKQKGLSVTFDGKREDYFPDLMKWASENGASVEGFEMVNFKEEGFGLRATRDIKAEELFLWVPRKLLMTVESAKNSVLGPLYSQDRILQAMGNIALAFHLLCERASPNSFWQPYIQTLPSEYDTPLYFEEDEVRYLQSTQAIHDVFSQYKNTARQYAYFYKVIQTHPHANKLPLKDSFTYEDYRWAVSSVMTRQNQIPTEDGSRVTLALIPLWDMCNHTNGLITTGYNLEDDRCECVALQDFRAGEQIYIFYGTRSNAEFVIHSGFFFDNNSHDRVKIKLGVSKSDRLYAMKAEVLARAGIPTSSVFALHFTEPPISAQLLAFLRVFCMTEEELKEHLLGDSAIDRIFTLGNSEFPVSWDNEVKLWTFLEDRASLLLKTYKTTIEEDKSVLKNHDLSVRAKMAIKLRLGEKEILEKAVKSAAVNREYYRQQMEEKAPLPKYEESNLGLLESSVGDSRLPLVLRNLEEEAGVQDALNIREAISKAKATENGLVNGENSIPNGTRSENESLNQESKRAVEDAKGSSSDSTAGVKE
notes: His6 (N); made in house; host or cells: E. coli BL21(DE3)
- Km [5]: 25.6 ± 4.9 µM
- kcat [5]: 2.47 ± 0.145 s⁻¹
- kcat/Km [5]: 96300 M⁻¹ s⁻¹
